Assay results reported in patent US20230193341A1, “EXPRESSION SYSTEMS, RECOMBINANT CELLS AND USES THEREOF” (Selexis SA, priority 2018, published 2023).

Columns and labels:
Type in all cases: cell-based, Chinese hamster
[1] = tested on: ETE (Trastuzumab) cells; assay: Fed-batch culture of ETE (Trastuzumab) CHO cells: IgG production and cell survival
Method: (§1) (A) ETE clone (Trastuzumab) non-treated (Control) or treated with 10 mM Bezafibrate PPARα ligand after […] of fed-batch culture (+Bezafibrate). Candidate gene expression were quantified at day 6 by RT-qPCR. (B) ETE cells treated with 10 mM Bezafibrate after 1-day fed-batch, and IgG titer measured after 10 days. Data are means±SE from four independent experiments. * P≤0.05 and ** P≤0.02 (t-test; 2 sided; unpaired sample, unequal variance).
The percentage of fluorescent cells and the fluorescence intensity of GFP positive cells were determined by flow cytometry analysis using a CyAn ADP flow cytometer (BECKMAN COULTER). Immunoglobulin concentrations in cell culture supernatants were measured by sandwich ELISA. GFP, IgG1Lc, IgG1Hc and MIP transcript accumulation was confirmed by RT-quantitative PCR assays before analyses.
(§2) Growth and IgG secretion performances in fed-batch culture were performed according to Le Fourn et al., 2013, with the following changes: IgG producing clone stably transfected for the expression of MIPs were seeded at 300′000 cells/ml in 5 mL culture medium in falcon of 50 mL. Viable cell density and IgG titer (g/L) were evaluated after 3, 6, 8, 9, 10 and 13 days.

[2] = tested on: PPAR target genes; assay: RT-qPCR of candidate / PPAR target gene expression in ETE (Trastuzumab) clone in fed-batch culture; conditions: 10 mM Bezafibrate added after 3 days of fed-batch, RT-qPCR at day 6 (FIG. 6A)
Method: as §1, §2
(§3) For quantitative PCR (qPCR) analysis, total RNA was extracted from […] and reverse transcribed into cDNA using the GoScript Reverse transcription System (Promega). Transcripts accumulation was quantified by qPCR using the LightCycler© 480 SYBR Green I Master and the LightCycler 480 II instrument (Roche). Transcript levels were normalized to that of SDHA housekeeping gene.

[3] = tested on: DTE cells; assay: Bezafibrate treatment of DTE CHO cells: target gene induction, production and fitness
Method: (§4) Antibiotic-selected DTE (Infliximab) cells were stably transfected with mouse PPARα or with an empty vector. Analyses of gene expression, IgG titer and cell viability were performed comparing DTE clone with empty vector cell and PPARα overexpressing cells (PPARα_OE). (A) Gene expression of PPARα targets, PPARα and IgG (qRT-PCR) in none-treated cells or cells treated with Bezafibrate (BEZA). Bezafibrate was added at 10 mM at day 1 of the fed-batch culture. RNA was extracted at day 6 of the fed-batch culture. Infliximab IgG specific productivity (B) and cell viability (C) are illustrated in non-selective or B5-starving media. Cells were cultured in 12 well-plate at a starting amount of 2*105 cell/ml in non-selective or B5 starving medium for 5 days, then transferred in non-selective media. IgG specific productivity (PCD) was then measured over 3 days of culture in non-selective media. Each measurement is the result of three independent cultures. Statistics: * P≤0.05 and ** P≤0.02 (t-test; 1 sided; unpaired sample, unequal variance).
as §2, §3

[4] = tested on: exogenous PPARα; assay: DTE (Infliximab) cells stably overexpressing mouse PPARα (PPARα_OE): gene expression (qRT-PCR) and IgG productivity
Method: as §4
as §3, with “Transcript levels were normalized to that of SDHA housekeeping gene.” left out

CC(C)(Oc1ccc(CCNC(=O)c2ccc(Cl)cc2)cc1)C(=O)O [Bezafibrate, 2-[4-[2-(4-chlorobenzamido)ethyl]phenoxy]-2-methylpropanoic acid]
recombinant protein (IgG titer) at the end of the fed-batch ([1]; ETE cells, 10 mM Bezafibrate added at day 1 of fed-batch, IgG titer after 10 days (FIG. 6B)): beneficial for recombinant protein | cell division, viability and recombinant protein production ([1]; ETE cells, increased bezafibrate concentration, data not shown): doesn't show any beneficial effect | cell survival under starvation stress during the fed-batch process ([1]; addition at day 3 of the fed-batch, data not shown): significantly improved cell survival | IgG production ([1]; addition at day 3 of the fed-batch, normal fed-batch conditions of feeding): no improvement of IgG production | expression of B5-target Slc22a14 [2]: activated | expression of Cyp4a14 [2]: not induced | expression of PPAR target genes HmgCs2, Acot1, DBI1, AscI1 and RXR nuclear receptor [2]: induces PPAR target genes | cell production and fitness [3]: the cell production and fitness weren't improved | induction of PPAR target genes [3]: the same target genes are induced | cell division, viability and recombinant protein production ([3]; increased bezafibrate concentration, data not shown): doesn't show any beneficial effect | IgG productivity ([4]; PPARα_OE DTE (Infliximab) cells with bezafibrate (FIG. 7B)): higher IgG productivity | transcription of PPAR-target genes, RXR nuclear factor and IgG light and heavy chains ([4]; PPARα_OE DTE (Infliximab) cells, Bezafibrate 10 mM at day 1, RNA at day 6 of fed-batch (FIG. 7A)): induced the transcription of PPAR-target genes
